Measurements from paper PMC9994133, “Substrate selectivity and inhibition of histidine JmjC hydroxylases MINA53 and NO66” (RSC Chemical Biology, 2023).
Square brackets hold non-standard residues; d marks the D form. Ends that are not written are not given here. Peptide text beside a SMILES is read from it. Aad = N[C@@H](CCCC(=O)O)C(=O)O

How the values were obtained:
NO66 = biological target: T1, NO66 (Homo sapiens, UniProt Q9H6W3); assay: NO66 inhibition assay by Rpl8 peptides (MALDI-TOF MS); assay type: biochemical; settings: 10 μM 2OG; for IC50: 400 nM NO66, 10 nM to 250 μM inhibitor Rpl peptide, 100 μM L-ascorbic acid, 10 μM ferrous ammonium sulfate, 50 mM MES pH 7.0, Rpl8-His216 substrate, duplicate assays; for inhibition at 5 µM: 5 μM inhibitor Rpl8 peptide, 400 nM NO66, 100 μM LAA, 10 μM FAS, 50 mM MES pH 7.0, 10 min preincubation, then 5 μM Rpl8-His216 substrate, 2 hours, room temperature, duplicate
T1 construct: His6; made in house; host or cells: Escherichia coli BL21(DE3), pET-28b
T1 sequence (Q9H6W3 167-641): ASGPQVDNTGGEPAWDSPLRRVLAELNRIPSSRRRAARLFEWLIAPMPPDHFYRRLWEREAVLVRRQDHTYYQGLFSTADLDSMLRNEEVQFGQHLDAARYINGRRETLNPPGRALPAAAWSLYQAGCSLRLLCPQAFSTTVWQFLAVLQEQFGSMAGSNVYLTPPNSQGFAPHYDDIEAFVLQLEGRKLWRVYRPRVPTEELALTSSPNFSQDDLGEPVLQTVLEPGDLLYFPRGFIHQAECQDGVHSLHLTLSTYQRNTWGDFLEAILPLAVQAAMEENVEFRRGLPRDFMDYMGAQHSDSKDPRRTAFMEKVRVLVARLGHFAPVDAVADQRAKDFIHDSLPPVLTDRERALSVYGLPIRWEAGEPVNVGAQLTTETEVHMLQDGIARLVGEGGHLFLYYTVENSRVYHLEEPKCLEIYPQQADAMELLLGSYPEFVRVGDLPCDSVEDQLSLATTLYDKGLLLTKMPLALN
Description: (§1) Having shown that our Rpl peptides are not, at least efficient, ROX substrates, we explored them as inhibitors of the recombinant human ROXs using MALDI-TOF assays (Rpl8/27a-N^τ-Me, Rpl8/27a-N^π-Me, Rpl8/27a-1-TriaA, Rpl8/27a-4-TriaA and Rpl8/27a-TetrA were excluded from the panels for NO66 and MINA53, respectively, due to signal overlap between the two peptides in the assays). Synthetic Rpl peptides (5 or 50 μM) were incubated with MINA53/NO66 (400 nM), ferrous ammonium sulfate (10 μM) and 2OG (10 μM) for 10 minutes, after which time the Rpl27a-His39 and Rpl8-His216 substrates were added, respectively, and the reactions were carried out for 2 hours at room temperature (Fig. 4 and Fig. S9, ESI ^†).
(§2) IC50 values were determined for the peptides that manifested clear inhibition potency by varying the concentration of the Rpl peptide inhibitor from 10 nM to 250 μM (Fig. 5 and Table 1).
(§3) IC50 values for MINA53 inhibition by Rpl27a peptides and NO66 inhibition by Rpl8 peptides. Conditions: 400 nM MINA53/NO66, 10 nM to 250 μM inhibitor Rpl peptide, 100 μM L-ascorbic acid, 10 μM ferrous ammonium sulfate, 10 μM 2OG in 50 mM MES buffer (pH 7.0) for NO66 and 50 mM HEPES (pH 7.5) for MINA53
(§4) MINA53 and NO66 inhibition assays in the presence of Rpl27a31-49 and Rpl8_205-224 peptides, respectively, were performed under the following assay conditions: 400 nM MINA53/NO66, 5/50 μM inhibitor Rpl peptide, 100 μM LAA, 10 μM FAS, 10 μM 2OG in 50 mM MES buffer (pH 7.0) for NO66 and 50 mM HEPES buffer (pH 7.5) for MINA53.[24] After 10 minutes of preincubation 5 μM of substrate peptide was added and the reaction was incubated for 2 hours at room temperature. A positive control reaction containing enzyme and unmodified peptide substrate without any inhibitors was included. After 2 hours the reaction was stopped by addition of 20 μL of 10% (v/v) LC-MS grade formic acid (Fisher Scientific), mixed 1 : 1 with α-cyano-4-hydroxycinnamic acid (CHCCA) matrix dissolved in a mixture of H2O and MeCN (1 : 1, v/v), and loaded onto an MTP 384 polished steel target to be analyzed by MALDI-TOF MS. MINA53/NO66 residual activity was determined by calculating the relative integral of the […] peptide to a control reaction in absence of potential inhibitory peptides. Experiments were carried out in duplicate.
3. Inhibition supporting figure
Figure S9. Results from NO66 inhibition at A) 5 µM and B) 50 µM of Rpl8-based peptides. Error
bars are standard errors (SE) of duplicate analyses. […]

MINA53 = biological target: T2, MINA53 (Homo sapiens, UniProt Q8IUF8); assay: MINA53 inhibition assay by Rpl27a peptides (MALDI-TOF MS); assay type: biochemical; settings: 10 μM 2OG; for IC50: 400 nM MINA53, 10 nM to 250 μM inhibitor Rpl peptide, 100 μM L-ascorbic acid, 10 μM ferrous ammonium sulfate, 50 mM HEPES pH 7.5, Rpl27a-His39 substrate, duplicate assays
T2 construct: His6; made in house; host or cells: Escherichia coli BL21(DE3), pET-28b
Description: as §1
Fig. 4 Results for MINA53 inhibition at (a) 5 μM and (b) 50 μM by Rpl27a peptides. Error bars reported as standard errors (SE) carried out in duplicate. See Fig. 2 for analogue structures.
as §2, §3, §4

T2 sequence (Q8IUF8 26-464): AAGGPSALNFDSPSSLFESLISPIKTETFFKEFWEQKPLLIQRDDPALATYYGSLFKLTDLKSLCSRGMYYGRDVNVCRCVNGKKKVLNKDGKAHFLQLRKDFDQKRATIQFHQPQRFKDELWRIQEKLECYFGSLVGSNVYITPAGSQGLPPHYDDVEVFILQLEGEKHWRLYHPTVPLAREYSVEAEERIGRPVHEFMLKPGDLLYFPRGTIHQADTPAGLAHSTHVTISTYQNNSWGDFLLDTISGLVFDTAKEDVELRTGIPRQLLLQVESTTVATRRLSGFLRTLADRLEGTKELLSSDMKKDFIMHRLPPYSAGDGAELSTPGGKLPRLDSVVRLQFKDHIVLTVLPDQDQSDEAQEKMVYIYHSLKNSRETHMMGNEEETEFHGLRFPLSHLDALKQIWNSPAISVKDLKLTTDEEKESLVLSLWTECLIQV

Compound	IC50 (NO66)	inhibition at 5 µM (NO66)	IC50 (MINA53)	MINA53 inhibition at 5 μM (in words) (MINA53; 5 μM inhibitor Rpl27a peptide, 400 nM MINA53, 100 μM LAA, 10 μM FAS, 50 mM HEPES pH 7.5, 10 min preincubation, then 5 μM Rpl27a-His39 substrate, 2 hours, room temperature, duplicate)	MINA53 inhibition at 50 μM (in words) (MINA53; 50 μM inhibitor Rpl27a peptide, 400 nM MINA53, 100 μM LAA, 10 μM FAS, 50 mM HEPES pH 7.5, 10 min preincubation, then 5 μM Rpl27a-His39 substrate, 2 hours, room temperature, duplicate)
CC[C@H](C)[C@H](NC(=O)[C@H](Cc1c[nH]cn1)NC(=O)[C@H](CCC(N)=O)NC(=O)[C@H](CCCC(N)=O)NC(=O)[C@H](CC(N)=O)NC(=O)CNC(=O)CNC(=O)CNC(=O)[C@H](Cc1ccccc1)NC(=O)[C@@H]1CCCN1C(=O)[C@H](Cc1c[nH]cn1)NC(=O)[C@H](CCC(=O)O)NC(=O)[C@@H](NC(=O)[C@@H]1CCCN1C(=O)[C@@H](N)CC(N)=O)C(C)C)C(=O)NCC(=O)N[C@@H](CCCCN)C(=O)N1CCC[C@H]1C(=O)N[C@@H](CO)C(=O)N[C@H](C(N)=O)[C@@H](C)O [Rpl8-hGln216] (H-NPVEHPFGGGN[Aad](NH2)QHIGKPST-NH2; N-terminus assumed)	11.2 ± 0.4 µM	~50%			
CC[C@H](C)[C@H](NC(=O)[C@H](CCCNC(=N)N)NC(=O)[C@H](Cc1c[nH]cn1)NC(=O)[C@H](Cc1c[nH]cn1)NC(=O)[C@H](CCCC(N)=O)NC(=O)[C@H](CC(C)C)NC(=O)CNC(=O)CNC(=O)[C@H](C)NC(=O)[C@H](CC(N)=O)NC(=O)CNC(=O)[C@H](CCCNC(=N)N)NC(=O)CN)C(=O)N[C@@H](CC(N)=O)C(=O)N[C@@H](Cc1ccccc1)C(=O)N[C@@H](CC(=O)O)C(=O)N[C@@H](CCCCN)C(=O)N[C@@H](Cc1ccc(O)cc1)C(=O)N[C@@H](Cc1c[nH]cn1)C(=O)N1CCC[C@H]1C(N)=O [Rpl27a-hGln39] (H-GRGNAGGL[Aad](NH2)HHRINFDKYHP-NH2)			1.47 ± 0.27 µM		
GRGNAGGLNHHRINFDKYHP-NH2 [Rpl27a-Asn39]			1.02 ± 0.11 µM	displayed inhibition	strong inhibition
GRGNAGGLQHHRINFDKYHP-NH2 [Rpl27a-Gln39]			0.39 ± 0.16 µM		
NPVEHPFGGGNNQHIGKPST-NH2 [Rpl8-Asn216]	8.86 ± 0.36 µM	~50%			
